Read-outs that look alike come from different tables or passages of the source.
How the values were obtained:
[1] = test system: luminal, basal, claudin-low and ERBB2AMP breast cancer cell lines; experiment: Associations of clinically relevant subtypes and response (non-parametric ANOVA or t-test on GI50 ranks); type: cell-based, human; conditions: for Subtype specificity: Table 6, most sensitive subtype, FDR p<0.20
Method in brief: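 Significance was set at FDR p<0.20 after combining p-values across three test sets. Subtype–response associations came from rank-based non-parametric ANOVA or t-tests on GI50. For three-class comparisons, post-hoc tests of each group against the rest identified the most sensitive group, with FDR correction.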

[2] = test system: panel of 55 breast cancer cell lines; experiment: Cell growth inhibition assay (Cell Titer Glo, 72 h, 9 doses; GI50, TGI, LC50); type: cell-based, human; conditions: Homo sapiens, read-out: GI50 (converted)
[3] = BT-474, BT474 cell line, censored GI50 values
[4] = BT-483, BT483 cell line, censored GI50 values
[5] = CAMA-1, CAMA1 cell line, censored GI50 values
[6] = HCC38, HCC38 cell line, censored GI50 values
[7] = HCC1143, HCC1143 cell line, censored GI50 values
[8] = HCC1419, HCC1419 cell line, censored GI50 values
[9] = HCC1428, HCC1428 cell line, censored GI50 values
[10] = HCC1500, HCC1500 cell line, censored GI50 values
[11] = HCC1806, HCC1806 cell line, censored GI50 values
[12] = HCC1954, HCC1954 cell line, censored GI50 values
[13] = HCC2185 cell line, censored GI50 values
[14] = MDA-MB-134-VI, MDAMB134VI cell line, censored GI50 values
[15] = MDA-MB-175-VII, MDAMB175VII cell line, censored GI50 values
[16] = MDA-MB-436, MDAMB436 cell line, censored GI50 values
[17] = MDA-MB-453, MDAMB453 cell line, censored GI50 values
[18] = SK-BR-3, SKBR3 cell line, censored GI50 values
[19] = SUM52PE, SUM52PE cell line, censored GI50 values
[20] = SUM149PT, SUM149PT cell line, censored GI50 values
[21] = SUM185PE, SUM185PE cell line, censored GI50 values
[22] = SUM1315MO2, SUM1315MO2 cell line, censored GI50 values
[23] = ZR-75B, ZR75B cell line, censored GI50 values

## COc1cc2ncnc(Nc3ccc(F)c(Cl)c3)c2cc1OCCCN1CCOCC1 [Gefitinib]
[1]
  association of response with ERBB2 amplification: positively associated with ERBB2 amplification
  Subtype specificity: ERBB2AMP
[2]; AU565, cell line AU565
  GI50: 1.07 µM
[2]; BT-474, cell line BT474
  GI50: 0.724 µM
[2]; BT-483, cell line BT483
  GI50: 6.17 µM
[2]; BT-549, cell line BT549
  GI50: 15.1 µM
[2]; CAMA-1, cell line CAMA1
  GI50: 26.9 µM
[2]; HCC38, cell line HCC38
  GI50: 28.2 µM
[2]; HCC70, cell line HCC70
  GI50: 17.4 µM
[2]; HCC1143, cell line HCC1143
  GI50: 11.7 µM
[2]; HCC1187, cell line HCC1187
  GI50: 30.2 µM
[2]; HCC1395, cell line HCC1395
  GI50: 7.08 µM
[2]; HCC1419, cell line HCC1419
  GI50: 2.75 µM
[2]; HCC1428, cell line HCC1428
  GI50: 10.7 µM
[2]; HCC1500, cell line HCC1500
  GI50: 8.13 µM
[2]; HCC1806, cell line HCC1806
  GI50: 4.68 µM
[2]; HCC1937, cell line HCC1937
  GI50: 8.32 µM
[2]; HCC1954, cell line HCC1954
  GI50: 2.04 µM
[2]; MCF7, cell line MCF7
  GI50: 26.9 µM
[2]; MDA-MB-157, cell line MDAMB157
  GI50: 15.1 µM
[2]; MDA-MB-231, cell line MDAMB231
  GI50: 33.1 µM
[2]; MDA-MB-361, cell line MDAMB361
  GI50: 6.46 µM
[2]; MDA-MB-415, cell line MDAMB415
  GI50: 7.41 µM
[2]; MDA-MB-436, cell line MDAMB436
  GI50: 33.1 µM
[2]; MDA-MB-453, cell line MDAMB453
  GI50: 7.41 µM
[2]; MDA-MB-468, cell line MDAMB468
  GI50: 25.1 µM
[2]; SK-BR-3, cell line SKBR3
  GI50: 2.82 µM
[2]; SUM52PE, cell line SUM52PE
  GI50: 7.94 µM
[2]; SUM149PT, cell line SUM149PT
  GI50: 2.88 µM
[2]; SUM185PE, cell line SUM185PE
  GI50: 20.9 µM
[2]; SUM-159-PT, cell line SUM159PT
  GI50: 8.51 µM
[2]; T47D, cell line T47D
  GI50: 15.8 µM
[2]; UACC-893, cell line UACC893
  GI50: 1.15 µM
[2]; ZR-75-1, cell line ZR751
  GI50: 32.4 µM
[2]; ZR-75B, cell line ZR75B
  GI50: 21.4 µM
[2]; cell line 600MPE
  GI50: 7.24 µM
[2]; cell line HCC2185
  GI50: 9.33 µM
[2]; cell line HCC3153
  GI50: 33.1 µM
[2]; cell line LY2
  GI50: 27.5 µM
[2]; cell line MDAMB134V
  GI50: 30.2 µM
[2]; cell line MDAMB175V
  GI50: 0.209 µM
[2]; cell line SUM1315MO
  GI50: 2.95 µM

## CC/C(=C(\c1ccccc1)c1ccc(OCCN(C)C)cc1)c1ccccc1 [Tamoxifen]
[1]
  Subtype specificity: Luminal
[2]; 600MPE cell line, censored GI50 values
  GI50: 47.9 µM
[2]; AU565, AU565 cell line, censored GI50 values
  GI50: 28.8 µM
[2]; AU565, cell line AU565
  GI50: 28.8 µM
[2]; [3]
  GI50: 2.4 µM
[2]; BT-474, cell line BT474
  GI50: 2.4 µM
[2]; [4]
  GI50: 24 µM
[2]; BT-483, cell line BT483
  GI50: 24 µM
[2]; BT-549, cell line BT549
  GI50: 166 µM
[2]; [5]
  GI50: 34.7 µM
[2]; CAMA-1, cell line CAMA1
  GI50: 34.7 µM
[2]; [6]
  GI50: 52.5 µM
[2]; HCC38, cell line HCC38
  GI50: 52.5 µM
[2]; HCC70, cell line HCC70
  GI50: 166 µM
[2]; HCC202, HCC202 cell line, censored GI50 values
  GI50: 29.5 µM
[2]; HCC202, cell line HCC202
  GI50: 29.5 µM
[2]; [7]
  GI50: 16.2 µM
[2]; HCC1143, cell line HCC1143
  GI50: 16.2 µM
[2]; HCC1395, HCC1395 cell line, censored GI50 values
  GI50: 14.5 µM
[2]; HCC1395, cell line HCC1395
  GI50: 14.5 µM
[2]; [8]
  GI50: 33.1 µM
[2]; HCC1419, cell line HCC1419
  GI50: 33.1 µM
[2]; [9]
  GI50: 3.24 µM
[2]; HCC1428, cell line HCC1428
  GI50: 3.24 µM
[2]; [10]
  GI50: 105 µM
[2]; HCC1500, cell line HCC1500
  GI50: 105 µM
[2]; [11]
  GI50: 13.2 µM
[2]; HCC1806, cell line HCC1806
  GI50: 13.2 µM
[2]; HCC1937, cell line HCC1937
  GI50: 166 µM
[2]; [12]
  GI50: 97.7 µM
[2]; HCC1954, cell line HCC1954
  GI50: 97.7 µM
[2]; [13]
  GI50: 14.1 µM
[2]; LY2 cell line, censored GI50 values
  GI50: 56.2 µM
[2]; MCF7, MCF7 cell line, censored GI50 values
  GI50: 102 µM
[2]; MCF7, cell line MCF7
  GI50: 102 µM
[2]; [14]
  GI50: 83.2 µM
[2]; [15]
  GI50: 14.5 µM
[2]; MDA-MB-415, MDAMB415 cell line, censored GI50 values
  GI50: 33.9 µM
[2]; [16]
  GI50: 30.9 µM
[2]; [17]
  GI50: 36.3 µM
[2]; [18]
  GI50: 105 µM
[2]; [19]
  GI50: 91.2 µM
[2]; [20]
  GI50: 102 µM
[2]; [21]
  GI50: 8.91 µM
[2]; [22]
  GI50: 100 µM
[2]; UACC-893, UACC893 cell line, censored GI50 values
  GI50: 3.09 µM
[2]; [23]
  GI50: 16.2 µM
[2]; cell line 600MPE
  GI50: 47.9 µM
[2]; cell line HCC2185
  GI50: 14.1 µM
[2]; cell line HCC3153
  GI50: 166 µM
[2]; cell line LY2
  GI50: 56.2 µM

## CN(C)C/C=C/C(=O)Nc1cc2c(Nc3ccc(F)c(Cl)c3)ncnc2cc1O[C@H]1CCOC1 [BIBW 2992]
[1]
  association of response with ERBB2 amplification: positively associated with ERBB2 amplification
  Subtype specificity: ERBB2AMP
[2]; BT-20, BT20 cell line, censored GI50 values
  GI50: 2.75 µM
[2]; BT-20, cell line BT20
  GI50: 2.75 µM
[2]; [3]
  GI50: 0.00589 µM
[2]; BT-474, cell line BT474
  GI50: 0.00589 µM
[2]; [4]
  GI50: 1.66 µM
[2]; BT-483, cell line BT483
  GI50: 1.66 µM
[2]; [5]
  GI50: 2.24 µM
[2]; CAMA-1, cell line CAMA1
  GI50: 2.24 µM
[2]; [6]
  GI50: 1.82 µM
[2]; HCC38, cell line HCC38
  GI50: 1.82 µM
[2]; HCC70, HCC70 cell line, censored GI50 values
  GI50: 0.468 µM
[2]; HCC70, cell line HCC70
  GI50: 0.468 µM
[2]; [7]
  GI50: 1.38 µM
[2]; HCC1143, cell line HCC1143
  GI50: 1.38 µM
[2]; [8]
  GI50: 0.00295 µM
[2]; HCC1419, cell line HCC1419
  GI50: 0.00295 µM
[2]; [9]
  GI50: 1.74 µM
[2]; HCC1428, cell line HCC1428
  GI50: 1.74 µM
[2]; [10]
  GI50: 0.339 µM
[2]; HCC1500, cell line HCC1500
  GI50: 0.339 µM
[2]; [11]
  GI50: 0.537 µM
[2]; HCC1806, cell line HCC1806
  GI50: 0.537 µM
[2]; HCC1937, HCC1937 cell line, censored GI50 values
  GI50: 2.09 µM
[2]; HCC1937, cell line HCC1937
  GI50: 2.09 µM
[2]; [12]
  GI50: 0.123 µM
[2]; HCC1954, cell line HCC1954
  GI50: 0.123 µM
[2]; [13]
  GI50: 1.38 µM
[2]; [14]
  GI50: 3.63 µM
[2]; [15]
  GI50: 0.00447 µM
[2]; [16]
  GI50: 3.72 µM
[2]; MDA-MB-436, cell line MDAMB436
  GI50: 3.72 µM
[2]; [17]
  GI50: 0.0912 µM
[2]; MDA-MB-453, cell line MDAMB453
  GI50: 0.0912 µM
[2]; MDA-MB-468, MDAMB468 cell line, censored GI50 values
  GI50: 0.631 µM
[2]; MDA-MB-468, cell line MDAMB468
  GI50: 0.631 µM
[2]; [18]
  GI50: 0.0132 µM
[2]; SK-BR-3, cell line SKBR3
  GI50: 0.0132 µM
[2]; [19]
  GI50: 3.39 µM
[2]; SUM52PE, cell line SUM52PE
  GI50: 3.39 µM
[2]; [20]
  GI50: 0.0741 µM
[2]; SUM149PT, cell line SUM149PT
  GI50: 0.0741 µM
[2]; [21]
  GI50: 5.62 µM
[2]; SUM185PE, cell line SUM185PE
  GI50: 5.62 µM
[2]; SUM225CWN, SUM225CWN cell line, censored GI50 values
  GI50: 0.00933 µM
[2]; SUM225CWN, cell line SUM225CWN
  GI50: 0.00933 µM
[2]; [22]
  GI50: 0.162 µM
[2]; SUM-159-PT, SUM159PT cell line, censored GI50 values
  GI50: 2.57 µM
[2]; SUM-159-PT, cell line SUM159PT
  GI50: 2.57 µM
[2]; UACC-812, UACC812 cell line, censored GI50 values
  GI50: 0.00282 µM
[2]; UACC-812, cell line UACC812
  GI50: 0.00282 µM
[2]; ZR-75-1, ZR751 cell line, censored GI50 values
  GI50: 2.34 µM
[2]; ZR-75-1, cell line ZR751
  GI50: 2.34 µM
[2]; [23]
  GI50: 3.02 µM
[2]; ZR-75B, cell line ZR75B
  GI50: 3.02 µM
[2]; cell line HCC2185
  GI50: 1.38 µM
[2]; cell line MDAMB134V
  GI50: 3.63 µM
[2]; cell line MDAMB175V
  GI50: 0.00447 µM
[2]; cell line SUM1315MO
  GI50: 0.162 µM
